Laboratory results from paper PMC8541513, “Stereoselective Synthesis of the Di-Spirooxindole Analogs Based Oxindole and Cyclohexanone Moieties as Potential Anticancer Agents” (Molecules, 2021).

Legend:
Human Fibroblast BJ = test: MTT cytotoxicity assay against BJ human fibroblast cells; assay type: cell-based; conditions: 48 h, 1-30 µM, ± SD of three independent experiments
Description: (§1) Cytotoxicity against BJ human fibroblast cells and cytotoxicity against PC3, HeLa, MCF-7, and MDA-MB231 cancer cell lines were evaluated by following the procedure as described in the literature (Supplementary Materials). […]
(§2) The Biological Activity Assays Protocols
(§3) Cytotoxic activity of compounds was evaluated in 96-well flat-bottomed micro plates by using the standard MTT (3-[4, 5-dimethylthiazole-2-yl]-2, 5-diphenyl-tetrazolium bromide) colorimetric assay.
(§4) For this purpose, PC3 cells (Prostate Cancer) / BJ Human fibroblast cells / HeLa cells (Cervical Cancer) / MCF-7 and MDA-MB-231 breast cancer cell line were cultured in Dulbecco’s Modified Eagle Medium, supplemented with 5% of fetal bovine serum (FBS), 100 IU/ml of penicillin and 100 µg/ml of streptomycin in 75 cm2 flasks, and kept in 5% CO2 incubator at 37 °C. Exponentially growing cells were harvested, counted with haemocytometer and diluted with a particular medium. Cell culture with the concentration of 1x10^5 cells/ml was prepared and introduced (100 µL/well) into 96-well plates. After overnight incubation, medium was removed and 200 µL of fresh medium was added with different concentrations of compounds (1-30µM). After 48 hrs, 200 µL MTT (0.5 mg/ml) was added to each well and incubated further for 4 hrs. Subsequently, 100µL of DMSO was added to each well. The extent of MTT reduction to formazan within cells was calculated by measuring the absorbance at 570 nm, using a micro plate reader (Spectra Max plus, Molecular Devices, CA, USA). The cytotoxicity was recorded […]
(§5) (1 picture or pasted object on this page, not shown here) […]
(§6) as concentration causing 50% growth inhibition (IC50) for PC3 cells. The percent inhibition was calculated by using the following formula:
(§7) % inhibition = 100-((mean of O.D of test compound – mean of O.D of negative control)/ (mean of O.D of positive control – mean of O.D of negative control)*100).
(§8) The results (% inhibition) were processed by using Soft- Max Pro software (Molecular Device, USA).
(§9) Standard drug used in the MTT assay was doxorubicin. […]

Prostate PC3 = test: MTT anticancer assay, prostate PC3 cells; assay type: cell-based; conditions: 1-30 µM, ± SD of three independent experiments; for IC50: Homo sapiens, PC-3, 48 h
Description: (§10) The antiproliferative activity against four cancer cell lines, including prostate PC3, cervical HeLa, and triple-negative breast cancer (MCF-7 and MDA-MB231) was evaluated by MTT assay, while standard drug doxorubicin was used as a reference for comparison (Table 1).
as §1, §2, §3, §4, §5, §6, §7, §8, §9

Cervical HeLa = test: MTT anticancer assay, cervical HeLa cells; assay type: cell-based; conditions: 48 h, 1-30 µM, ± SD of three independent experiments; for IC50: Homo sapiens, HeLa
Description: as §10, §1, §2, §3, §4, §5, §6, §7, §8, §9

Breast MCF-7 = test: MTT anticancer assay, breast MCF-7 cells; assay type: cell-based; set-up: key to IC50, Breast MCF-7: NA means that the tested compound did not show anticancer activity at 30 µM; NS: Not soluble; conditions: 1-30 µM, ± SD of three independent experiments; for IC50: Homo sapiens, MCF7, 48 h
Description: as §10, §1, §2, §3, §4, §5, §6, §7, §8, §9

Breast MDA-MB231 = test: MTT anticancer assay, breast MDA-MB231 cells; assay type: cell-based; set-up: key to IC50, Breast MDA-MB231: NA means that the tested compound did not show anticancer activity at 30 µM; NS: Not soluble; conditions: 1-30 µM, ± SD of three independent experiments; for IC50: Homo sapiens, MDA-MB-231, 48 h; for IC50, Breast MDA-MB231: 48 h
Description: as §10, §1, §2, §3, §4, §5, §6, §7, §8, §9

SMILES | IC50 (Human Fibroblast BJ) [µM] | IC50 (Prostate PC3) [µM] | IC50 (Cervical HeLa) [µM] | IC50 (Breast MCF-7) [µM] | IC50 (Breast MDA-MB231) [µM] | melting point [°C] | IC50, Prostate PC3 (Prostate PC3; 48 h) | IC50, Breast MCF-7 (Breast MCF-7; 48 h) | IC50, Breast MDA-MB231 (Breast MDA-MB231) | IC50, Cervical HeLa (Cervical HeLa)
O=C1/C(=C/c2ccccc2)CCC[C@@]12[C@H](c1ccccc1)[C@H]1C[C@@H]3CCCC[C@@H]3N1[C@]21C(=O)Nc2ccccc21 [Compound 4a, (1. S,1′S,3′S,4a′S,8a′S,9a′R)-3-((E)-Benzylidene)-1′-phenyl-4a′,5′,6′,7′,8′,8a′,9′,9a′-octahydro-1′H-dispiro[cyclohexane-1,2′-pyrrolo[1,2-a]indole-3′,3″-indoline]-2,2″-dione] | > 30 | 24.1 ± 1.1 | 7.1 ± 0.2 | 25 ± 0.57 | 19.5 ± 0.56 | 70 to 71 | – | – | – | –
O=C1/C(=C/c2ccccc2)CCC[C@@]12[C@H](c1ccccc1)[C@H]1C[C@@H]3CCCC[C@@H]3N1[C@]21C(=O)Nc2cc(Cl)ccc21 [Compound 4b, (1. S,1′S,3′S,4a′S,8a′S,9a′R)-3-((E)-Benzylidene)-6″-chloro-1′-phenyl-4a′,5′,6′,7′,8′,8a′,9′,9a′-octahydro-1′H-dispiro[cyclohexane-1,2′-pyrrolo[1,2-a]indole-3′,3″-indoline]-2,2″-dione] | > 30 | 3.7 ± 1 | > 30 | 27.7 ± 0.59 | 24.08 ± 0.02 | – | – | – | – | –
O=C1/C(=C/c2ccccc2)CCC[C@@]12[C@H](c1ccccc1)[C@H]1C[C@@H]3CCCC[C@@H]3N1[C@]21C(=O)Nc2ccc(F)cc21 [Compound 4c, (1. S,1′S,3′S,4a′S,8a′S,9a′R)-3-((E)-Benzylidene)-5″-fluoro-1′-phenyl-4a′,5′,6′,7′,8′,8a′,9′,9a′-octahydro-1′H-dispiro[cyclohexane-1,2′-pyrrolo[1,2-a]indole-3′,3″-indoline]-2,2″-dione] | > 30 | 17.9 ± 0.2 | > 30 | 27.8 ± 1.02 | 20.6 ± 2.16 | 70 to 71 | – | – | – | –
O=C1/C(=C/c2ccccc2)CCC[C@@]12[C@H](c1ccccc1)[C@H]1C[C@@H]3CCCC[C@@H]3N1[C@]21C(=O)Nc2ccc([N+](=O)[O-])cc21 [Compound 4d, (1. S,1′S,3′S,4a′S,8a′S,9a′R)-3-((E)-Benzylidene)-5″-nitro-1′-phenyl-4a′,5′,6′,7′,8′,8a′,9′,9a′-octahydro-1′H-dispiro[cyclohexane-1,2′-pyrrolo[1,2-a]indole-3′,3″-indoline]-2,2″-dione] | > 30 | 29.8 ± 0.1 | > 30 | > 30 | > 30 | 111 to 122 | – | – | – | –
COc1ccc2c(c1)[C@]1(C(=O)N2)N2[C@H](C[C@@H]3CCCC[C@@H]32)[C@@H](c2ccccc2)[C@@]12CCC/C(=C\c1ccccc1)C2=O [Compound 4e, (1. S,1′S,3′S,4a′S,8a′S,9a′R)-3-((E)-Benzylidene)-5″-methoxy-1′-phenyl-4a′,5′,6′,7′,8′,8a′,9′,9a′-octahydro-1′H-dispiro[cyclohexane-1,2′-pyrrolo[1,2-a]indole-3′,3″-indoline]-2,2″-dione] | > 30 | 19.6 ± 1.2 | 26.5 ± 0.04 | > 30 | > 30 | 111 to 122 | – | – | – | –
O=C1/C(=C/c2ccc(Br)cc2)CCC[C@@]12[C@H](c1ccc(Br)cc1)[C@H]1C[C@@H]3CCCC[C@@H]3N1[C@]21C(=O)Nc2cc(Cl)ccc21 [Compound 4f, (1. S,1′S,3′S,4a′S,8a′S,9a′R)-3-((E)-4-Bromobenzylidene)-1′-(4-bromophenyl)-6″-chloro-4a′,5′,6′,7′,8′,8a′,9′,9a′-octahydro-1′H-dispiro[cyclohexane-1,2′-pyrrolo[1,2-a]indole-3′,3″-indoline]-2,2″-dione] | > 30 | > 30 | > 30 | – | – | 97 to 98 | inactive | NS ^c | NS | –
O=C1/C(=C/c2ccc(Br)cc2)CCC[C@@]12[C@H](c1ccc(Br)cc1)[C@H]1C[C@@H]3CCCC[C@@H]3N1[C@]21C(=O)Nc2ccc([N+](=O)[O-])cc21 [Compound 4g, (1. S,1′S,3′S,4a′S,8a′S,9a′R)-3-((E)-4-bromobenzylidene)-1′-(4-bromophenyl)-5″-nitro-4a′,5′,6′,7′,8′,8a′,9′,9a′-octahydro-1′H-dispiro[cyclohexane-1,2′-pyrrolo[1,2-a]indole-3′,3″-indoline]-2,2″-dione] | 21.7 ± 0.2 | 14.3 ± 1 | > 30 | > 30 | – | 125 to 126 | – | – | NS | –
O=C1/C(=C/c2cccc(F)c2)CCC[C@@]12[C@H](c1cccc(F)c1)[C@H]1C[C@@H]3CCCC[C@@H]3N1[C@]21C(=O)Nc2cc(Cl)ccc21 [Compound 4h, (1. S,1′S,3′S,4a′S,8a′S,9a′R)-6″-Chloro-3-((E)-3-fluorobenzylidene)-1′-(3-fluorophenyl)-4a′,5′,6′,7′,8′,8a′,9′,9a′-octahydro-1′H-dispiro[cyclohexane-1,2′-pyrrolo[1,2-a]indole-3′,3″-indoline]-2,2″-dione] | > 30 | > 30 | > 30 | > 30 | 14.43 ± 0.09 | 83 to 84 | – | – | – | –
O=C1/C(=C/c2cccc(F)c2)CCC[C@@]12[C@H](c1cccc(F)c1)[C@H]1C[C@@H]3CCCC[C@@H]3N1[C@]21C(=O)Nc2ccc([N+](=O)[O-])cc21 [Compound 4i, (1. S,1′S,3′S,4a′S,8a′S,9a′R)-3-((E)-3-Fluorobenzylidene)-1′-(3-fluorophenyl)-5″-nitro-4a′,5′,6′,7′,8′,8a′,9′,9a′-octahydro-1′H-dispiro[cyclohexane-1,2′-pyrrolo[1,2-a]indole-3′,3″-indoline]-2,2″-dione] | > 30 | > 30 | > 30 | > 30 | 7.63 ± 0.08 | 107 to 108 | – | – | – | –
COc1ccc2c(c1)[C@]1(C(=O)N2)N2[C@H](C[C@@H]3CCCC[C@@H]32)[C@@H](c2cccc(F)c2)[C@@]12CCC/C(=C\c1cccc(F)c1)C2=O [Compound 4j, (1. S,1′S,3′S,4a′S,8a′S,9a′R)-3-((E)-3-Fluorobenzylidene)-1′-(3-fluorophenyl)-5″-methoxy-4a′,5′,6′,7′,8′,8a′,9′,9a′-octahydro-1′H-dispiro[cyclohexane-1,2′-pyrrolo[1,2-a]indole-3′,3″-indoline]-2,2″-dione] | > 30 | > 30 | 11.9 ± 0.04 | > 30 | 10.5 ± 0.71 | 92 to 93 | – | – | – | –
O=C1/C(=C/c2cccc(Br)c2)CCC[C@@]12[C@H](c1cccc(Br)c1)[C@H]1C[C@@H]3CCCC[C@@H]3N1[C@]21C(=O)Nc2cc(Cl)ccc21 [Compound 4k, (1. S,1′S,3′S,4a′S,8a′S,9a′R)-3-((E)-3-Bromobenzylidene)-1′-(3-bromophenyl)-6″-chloro-4a′,5′,6′,7′,8′,8a′,9′,9a′-octahydro-1′H-dispiro[cyclohexane-1,2′-pyrrolo[1,2-a]indole-3′,3″-indoline]-2,2″-dione] | > 30 | > 30 | > 30 | > 30 | > 30 | 115 to 116 | – | – | – | inactive
O=C1/C(=C/c2ccc(F)cc2)CCC[C@@]12[C@H](c1ccc(F)cc1)[C@H]1C[C@@H]3CCCC[C@@H]3N1[C@]21C(=O)Nc2cc(Cl)ccc21 [Compound 4l, (1. S,1′S,3′S,4a′S,8a′S,9a′R)-6″-Chloro-3-((E)-4-fluorobenzylidene)-1′-(4-fluorophenyl)-4a′,5′,6′,7′,8′,8a′,9′,9a′-octahydro-1′H-dispiro[cyclohexane-1,2′-pyrrolo[1,2-a]indole-3′,3″-indoline]-2,2″-dione] | > 30 | > 30 | 7.2 ± 0.5 | > 30 | 14.45 ± 0.08 | 96 to 97 | – | – | – | –
